Data set [1] can be described thus: Cardiorenal effect in Sprague-Dawley rat assessed as reduction in blood pressure at 72 nmol/kg, iv […]. In kind it is organism-based. The following applies: in vivo.
In data set [2] the test system is Rattus norvegicus. Nature of the data set: Cardiorenal effect in Sprague-Dawley rat assessed as increase left ventricular fractional shortening at 9.9 nmol/kg/hr dosed by continuous infusion via osmotic mini pumps measured after 6 hrs by echocardiography relative to base line in sham treated control. The class given is functional.
Data set [3] deals with Rattus norvegicus. Nature of the data set: Cardiorenal effect in Sprague-Dawley rat assessed as increase left ventricular fractional shortening at 9.9 nmol/kg/hr dosed by continuous infusion via osmotic mini pumps measured after 24 hrs by echocardiography relative to base line in sham treated control. In kind it is functional.
In data set [4] the test system is Rattus norvegicus. Nature of the data set: Cardiorenal effect in Sprague-Dawley rat assessed as urinary output level at 9.9 nmol/kg/hr dosed by continuous infusion via osmotic mini pumps […] (reference value: 1.3 mL/kg/hr). The class given is functional.
For data set [5], the system named is Rattus norvegicus. Nature of the data set: Cardiorenal effect in Sprague-Dawley rat assessed as water intake level at 9.9 nmol/kg/hr dosed by continuous infusion via osmotic mini pumps […] (reference value: 3.3 mL/kg/hr). The class given is functional.
A short description of data set [6]: Cardiorenal effect in Sprague-Dawley rat assessed as reduction in blood pressure at 5 nmol/kg, iv […]. The conditions noted are these: in vivo. The class given is organism-based.
The target in data set [7] is T1, Apelin receptor (Homo sapiens, UniProt P35414).
T1 sequence (P35414 whole entry): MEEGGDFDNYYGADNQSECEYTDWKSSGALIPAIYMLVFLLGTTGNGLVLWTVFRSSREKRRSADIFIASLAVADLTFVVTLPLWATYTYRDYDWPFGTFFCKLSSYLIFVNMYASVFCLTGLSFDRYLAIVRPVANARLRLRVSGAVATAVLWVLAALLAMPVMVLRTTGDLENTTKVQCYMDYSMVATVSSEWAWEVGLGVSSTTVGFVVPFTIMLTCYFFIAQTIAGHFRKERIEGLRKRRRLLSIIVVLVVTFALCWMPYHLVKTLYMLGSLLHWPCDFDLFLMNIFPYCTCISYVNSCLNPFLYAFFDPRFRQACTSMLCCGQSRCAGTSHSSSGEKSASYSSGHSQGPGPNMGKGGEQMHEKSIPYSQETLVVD
Nature of the data set: Agonist activity at human APJ receptor expressed in HEK293 cells co-expressing Galpha(i1)-RlucII(91) assessed as induction of dissociation of Galpha(i1) from G-beta-gamma subunits incubated for 5 mins by BRET assay. The class given is cell-based.

Data set [8] deals with T1, Apelin receptor. Nature of the data set: Agonist activity at human APJ receptor expressed in HEK293 cells co-expressing Rlucll-beta-arrestin2 assessed as induction of beta-arrestin2 recruitment to APJ incubated for 30 mins by BRET assay. The class given is cell-based.
Data set [9] deals with T1, Apelin receptor. Nature of the data set: Displacement of [125I] [NIe75, Tyr77]Pyr-apelin-13 from YFP-tagged human APJ receptor expressed in HEK293 cell membranes incubated for 1 hr by gamma counting based Cheng-Prusoff equation analysis.
Data set [10] addresses T1, Apelin receptor. Nature of the data set: Agonist activity at human APJ receptor expressed in HEK293T cells co-expressing PDZ-Rho-Gef-RLucll assessed as induction of Galpha12 effector (PDZ-RhoGEF) to the cell membrane incubated for 5 mins by BRET assay. The class given is functional, cell-based.
The target in data set [11] is T2, Apelin receptor (Homo sapiens) (UniProt P35414).
T2 sequence (whole entry): T1 sequence (P35414 whole entry)
Nature of the data set: Agonist activity at human APJ receptor expressed in HEK293 cells co-expressing […] assessed as induction of Galpha12 effector (PDZ-RhoGEF) to the cell membrane incubated for 5 mins by BRET assay relative to control. In kind it is functional, cell-based. The following applies: filed as agonist.

These results are taken from ChEMBL document CHEMBL4765470 (J Med Chem, 2021).

Molecules are shown by their SMILES. Non-standard residues stand in square brackets, D forms with d. Residues, ends and D or L forms follow the SMILES beside them. 1Nal = N[C@@H](Cc1cccc2ccccc12)C(=O)O; 2Nal = N[C@@H](Cc1ccc2ccccc2c1)C(=O)O; αMeF = C[C@](N)(Cc1ccccc1)C(=O)O; β3hF = N[C@H](CC(=O)O)Cc1ccccc1; Cha = N[C@@H](CC1CCCCC1)C(=O)O; Tle = CC(C)(C)[C@H](N)C(=O)O; Nle = CCCC[C@H](N)C(=O)O; Ac5c = NC1(C(=O)O)CCCC1

Consider `CCCC[C@H](N)C(=O)N1CCC[C@H]1C(=O)N[C@@H](CC(C)C)C(=O)N[C@@H](Cc1cnc[nH]1)C(=O)N[C@@H](CO)C(=O)N[C@@H](CCCNC(=N)N)C(=O)N[C@H](C(=O)N1CCC[C@H]1C(=O)N[C@@H](Cc1ccccc1)C(=O)N1CCC[C@H]1C(=O)O)C(C)C`, for which the Activity entry was “Non-Toxic” in data set [1]; 11% in the data set on Rattus norvegicus [2]; 19% in the data set on Rattus norvegicus [3]; 2.7 mL/h/kg in the data set on Rattus norvegicus [4]; 4.5 mL/h/kg with Rattus norvegicus [5].

For `CSCC[C@H](NC(=O)[C@@H](NC(=O)[C@H](CC(C)C)NC(=O)[C@H](CC(N)=O)NC(=O)[C@@H](NC(=O)[C@@H]1CCCN1C(=O)[C@H](CCCNC(=N)N)NC(=O)[C@@H]1CCC(=O)N1)C(C)C)[C@@H](C)O)C(=O)N[C@@H](C)C(=O)N[C@@H](CCCNC(=N)N)C(=O)N[C@@H](CCCCN)C(=O)N[C@@H](CC(C)C)C(=O)N[C@@H](CCCNC(=N)N)C(=O)N[C@@H](CCCCN)C(=O)N[C@@H](Cc1cnc[nH]1)C(=O)N[C@@H](CC(N)=O)C(=O)N[C@H]1CSSC[C@@H](C(=O)N[C@@H](CCSC)C(=O)N2CCC[C@H]2C(=O)N[C@@H](CC(C)C)C(=O)N[C@@H](Cc2cnc[nH]2)C(=O)N[C@@H](CO)C(=O)N[C@@H](CCCNC(=N)N)C(=O)N[C@H](C(=O)N2CCC[C@H]2C(=O)N[C@@H](Cc2ccccc2)C(=O)N2CCC[C@H]2C(=O)O)C(C)C)NC(=O)[C@H](CCCNC(=N)N)NC(=O)[C@H](CCCNC(=N)N)NC(=O)[C@H](CCC(N)=O)NC(=O)[C@H](CC(C)C)NC1=O`, the Activity entry is “<= 40 mmHg” in data set [6]; 18% in the data set on Rattus norvegicus [2]; 27% in the data set on Rattus norvegicus [3]; 3.5 mL/h/kg in the data set with Rattus norvegicus [4]; 5 mL/h/kg with Rattus norvegicus [5]. Besides, the EC50 at Apelin receptor [7] amounted to 5.3 nM; at Apelin receptor [8], 45 nM; at Apelin receptor [10], 25 nM. In addition, the Ki at Apelin receptor [9] is 0.19 nM.

Regarding `CCCC[C@H](N)C(=O)N1CCC[C@H]1C(=O)N[C@@H](CC(C)C)C(=O)N[C@@H](Cc1cnc[nH]1)C(=O)N[C@@H](CO)C(=O)N[C@@H](CCCNC(=N)N)C(=O)N[C@H](C(=O)N1CCC[C@H]1C(=O)N[C@@H](Cc1ccccc1)C(=O)N[C@@H](Cc1cccc2ccccc12)C(=O)O)C(C)C` (H-[Nle]PLHSRVPF[1Nal]-OH), the EC50 amounted to 4.5 nM at Apelin receptor [7], 123 nM at Apelin receptor [8] and 30 nM on Apelin receptor [10]. The molecule further came in with a Ki on Apelin receptor [9] of 13 nM.

In the case of `CCCC[C@H](N)C(=O)N1CCC[C@H]1C(=O)N[C@@H](CC(C)C)C(=O)N[C@@H](Cc1cnc[nH]1)C(=O)N[C@@H](CO)C(=O)N[C@@H](CCCNC(=N)N)C(=O)N[C@H](C(=O)N1CCC[C@H]1C(=O)N[C@@H](Cc1ccccc1)C(=O)N[C@@H](Cc1ccc2ccccc2c1)C(=O)O)C(C)C` (H-[Nle]PLHSRVPF[2Nal]-OH), the EC50 was found to be 3.8 nM at Apelin receptor [7], 107 nM at Apelin receptor [8] and 37 nM at Apelin receptor [10]. In addition, the inhibition constant (Ki) on Apelin receptor [9] was found to be 3.9 nM.

Take `CCCC[C@H](N)C(=O)N1CCC[C@H]1C(=O)N[C@@H](CC(C)C)C(=O)N[C@@H](Cc1cnc[nH]1)C(=O)N[C@@H](CO)C(=O)N[C@@H](CCCNC(=N)N)C(=O)N[C@H](C(=O)N1CCC[C@H]1C(=O)N[C@@H](Cc1cccc2ccccc12)C(=O)N1CCC[C@H]1C(=O)O)C(C)C` (H-[Nle]PLHSRVP[1Nal]P-OH): the concentration for a half-maximal effect (EC50) was found to be 23 nM at Apelin receptor [7], 537 nM at Apelin receptor [8] and 1040 nM on Apelin receptor [10]. The Ki on Apelin receptor [9] stood at 21 nM.

Consider `CCCC[C@H](N)C(=O)N1CCC[C@H]1C(=O)N[C@@H](CC(C)C)C(=O)N[C@@H](Cc1cnc[nH]1)C(=O)N[C@@H](CO)C(=O)N[C@@H](CCCNC(=N)N)C(=O)N[C@H](C(=O)N1CCC[C@H]1C(=O)N[C@@H](Cc1ccc2ccccc2c1)C(=O)N1CCC[C@H]1C(=O)O)C(C)C` (H-[Nle]PLHSRVP[2Nal]P-OH), for which the EC50 on Apelin receptor [7] was 7 nM; on Apelin receptor [8], 155 nM; at Apelin receptor [10] it was 152 nM. In addition, the Ki at Apelin receptor [9] was 16 nM.

On to `CCCC[C@H](N)C(=O)N1CCC[C@H]1C(=O)N[C@@H](CC(C)C)C(=O)N[C@@H](Cc1cnc[nH]1)C(=O)N[C@@H](CO)C(=O)N[C@@H](CCCNC(=N)N)C(=O)N[C@H](C(=O)N1CCC[C@H]1C(=O)N[C@@H](CC1CCCCC1)C(=O)N1CCC[C@H]1C(=O)O)C(C)C` (H-[Nle]PLHSRVP[Cha]P-OH), for which the EC50 at Apelin receptor [7] is 17 nM; on Apelin receptor [8], 940 nM; on Apelin receptor [10] it was 54 nM. This molecule also registered a Ki at Apelin receptor [9] of 4 nM. The Emax in data set [11] was determined as 43%.

For `CCCC[C@H](N)C(=O)N1CCC[C@H]1C(=O)N[C@@H](CC(C)C)C(=O)N[C@@H](Cc1cnc[nH]1)C(=O)N[C@@H](CO)C(=O)N[C@@H](CCCNC(=N)N)C(=O)N[C@H](C(=O)N1CCC[C@H]1C(=O)N[C@H](CC(=O)O)Cc1ccccc1)C(C)C` (H-[Nle]PLHSRVP[β3hF]-OH), the EC50 on Apelin receptor [7] is 5.1 nM; at Apelin receptor [8] it was 182 nM; at Apelin receptor [10], 740 nM. The molecule further displayed a Ki at Apelin receptor [9] of 19 nM.

For the molecule `CCCC[C@H](N)C(=O)N1CCC[C@H]1C(=O)NC1(C(=O)N[C@@H](Cc2cnc[nH]2)C(=O)N[C@@H](CO)C(=O)N[C@@H](CCCNC(=N)N)C(=O)N[C@H](C(=O)N2CCC[C@H]2C(=O)N[C@@H](Cc2ccccc2)C(=O)N2CCC[C@H]2C(=O)O)C(C)C)CCCC1` (H-[Nle]P[Ac5c]HSRVPFP-OH), the figures for the EC50 on Apelin receptor [7], on Apelin receptor [8] and at Apelin receptor [10] were 1.2 nM, 79 nM and 70 nM, respectively. On Apelin receptor [9], this molecule yielded a Ki of 2.4 nM.

With `CCCC[C@H](N)C(=O)N1CCC[C@H]1C(=O)N[C@@H](CC1CCCCC1)C(=O)N[C@@H](Cc1cnc[nH]1)C(=O)N[C@@H](CO)C(=O)N[C@@H](CCCNC(=N)N)C(=O)N[C@H](C(=O)N1CCC[C@H]1C(=O)N[C@@H](Cc1ccccc1)C(=O)N1CCC[C@H]1C(=O)O)C(C)C` (H-[Nle]P[Cha]HSRVPFP-OH), the results for the EC50 at Apelin receptor [7], on Apelin receptor [8] and at Apelin receptor [10] were 2.8 nM, 120 nM and 94 nM, respectively. In addition, on Apelin receptor [9], the Ki was determined as 4 nM.

With `CCCC[C@H](N)C(=O)N1CCC[C@H]1C(=O)N[C@H](C(=O)N[C@@H](Cc1cnc[nH]1)C(=O)N[C@@H](CO)C(=O)N[C@@H](CCCNC(=N)N)C(=O)N[C@H](C(=O)N1CCC[C@H]1C(=O)N[C@@H](Cc1ccccc1)C(=O)N1CCC[C@H]1C(=O)O)C(C)C)C(C)(C)C` (H-[Nle]P[Tle]HSRVPFP-OH), the figures for the EC50 at Apelin receptor [7], on Apelin receptor [8] and at Apelin receptor [10] were 2.4 nM, 401 nM and 795 nM, respectively. Besides, on Apelin receptor [9], the Ki was determined as 21 nM.

For `CCCC[C@H](N)C(=O)N1CCC[C@H]1C(=O)N[C@@](C)(Cc1ccccc1)C(=O)N[C@@H](Cc1cnc[nH]1)C(=O)N[C@@H](CO)C(=O)N[C@@H](CCCNC(=N)N)C(=O)N[C@H](C(=O)N1CCC[C@H]1C(=O)N[C@@H](Cc1ccccc1)C(=O)N1CCC[C@H]1C(=O)O)C(C)C` (H-[Nle]P[αMeF]HSRVPFP-OH), the values for the EC50 on Apelin receptor [7], on Apelin receptor [8] and on Apelin receptor [10] were 6.4 nM, 189 nM and 515 nM, respectively. Further, the affinity at Apelin receptor [9], expressed as Ki, was 25 nM.
